# In PMC7849011, “Defining the Antimalarial Activity of Cipargamin in Healthy Volunteers Experimentally Infected with Blood-Stage Plasmodium falciparum” (Antimicrobial Agents and Chemotherapy, 2021):
# Several values for one entry are separate records, joined by “and”; a condition that tells them apart may be missing. Equal values may be shown once.
# System: P. falciparum
# Experiment: Population PK/PD modelling (Emax model) and dose simulation
# Format: in vivo, Plasmodium falciparum
# Protocol: Data preparation, exploration, model definition, model evaluation and simulations were performed in R (version 3.5.1) and the R package IQRtools (version 1.0.6; IntiQuan, Basel, Switzerland) within the software package MonolixSuite 2018R2 (Lixoft, Antony, France). The MIC and the minimum parasiticidal concentration that achieves 90% of maximum effect (MPC90) were derived from the PK/PD model. Simulations were performed to predict the minimum effective single dose, defined as the dose that clears 10^9 parasites/ml. Further detail on PK/PD modeling methods is presented in Text S1.
# Pharmacokinetic/Pharmacodynamic modelling methods and results […]
# The objectives of the PK/PD modelling anal ysis w ere:
# 1. To develop a population PK model of cipar gamin in healthy subjects inoculated with blood stage P. falciparum .
# 2. To char acterize the PK/PD relationship between cipargamin pharmacokinetics and parasite cl ear ance in h eal th subjects inoculated with blood stage P. falcipar um .
# 3. To determine the minimum inhibitory concent ration (M IC ) of cipargamin .
# 4. To establish the minimum effective cipar gamin single dose required to kill 10 9
# Data preparation, exploration, model definition, model evaluation and simulations were performed in R (version 3.5.1) and the R package IQRtools (version 1.0.6, IntiQuan GmbH, Basel, Switzerland) withi n the software package MonolixSuite2018R2 (Li xoft, Anton y, Fran ce) which implemen ts stochastic approx imation ex pectation-maximisation (SAEM) algorithm for parameter estimation.
# One-, two- and three-compartment with different absorption and elimination models were tested. Zero- and first-order absorption models wi th or without lag time were examined. Data below the lower limit of quantitation ( LLO Q; 0.001 µg/ m L) were treated using a left - censoring method. Between subject vari abilit y ( BSV) of the PK parameters was assumed to be normally distributed on log -scale. The random effects across the par ameters within an individual were modelled according to a multivari ate normal distribution (MVN). BS V w as […]
# supported by the data.The residual unexplained variabilit y (RUV) was tested using a proportional or combined error models.
# Population PK/PD modelling
# A sequential PK/PD modelling approach was used in which the empirical Bayes estimates of individual PK parameters were us ed as r egression parameters for the PK/P D model. The observations below the limit of detection (LOD; 10 parasites/mL) were mo del led using a l eft-censoring method. In this anal ysis, the changes in parasitemia over time in the presen ce of antimalarial dru g are ass umed to be a result of the differen ce b etween p ar asite growth rate (k grow ) and the r ate at wh ich parasites are killed b y the drug (k k ill ) with a baseline parasitemia (P L base ) at time t 0 (time of inoculation). Diff erent structural PK/PD models were tested to assess the relationship of cipar gamin plasma concentration on the parasite ki lling rate. The E max model assumed a direct effect of cipargamin plasma concent rations on parasite killing.
# The turnover model assumed an indirect effect of cipargamin plasma concentrations on parasite killing due to lag in the PD processes (i.e. the kinetics of dru g-receptor binding). The effect compartment mod el assumed an indirect ef fect of cipar gamin plasm a concentration on parasite killing due to biophase equilibration. This model can be interpreted as the dela y for the drug to reach the site of action in which the cip ar gamin concentrations i n the eff ect […]
# compartment drives the d rug eff ect. The p arasite clear an ce model assumed that the observed parasites were a mixture of living and dead parasites and that the cipar gami n plasma […]
# PD parameters wer e mod elled assuming a log-normal distribution with exception of ln-transformed b aseline par asite values (parasit emia at time of inoculation) w here a no rmal distribution was assumed. […]
# were fixed to 0.2. […]
# [1] = plasma concentration, PK/PD model, 10 mg cohort
compound,measurement,setting,value
C[C@H]1Cc2c([nH]c3cc(Cl)c(F)cc23)[C@@]2(N1)C(=O)Nc1ccc(Cl)cc12 [cipargamin],"PRR48 actual, median (95% CI)","PK/PD model, 10 mg",2.59 (1.89 – 3.32) log10 unit
same,"Time above MIC, median (95% CI)","PK/PD model, 10 mg",1.96 (1.59 –2.44) days
same,"Time above MPC90, median (95% CI)","PK/PD model, 10 mg",0.89 (0.63–1.26) days
same,"Emax, maximum parasite killing rate","final PK/PD Emax model, Hill coefficient fixed to 5",0.23 h⁻¹
same,"MIC, median (95% CI)",[1],11.6 (9.9 – 13.3) ng/ml and 11.6 ng/ml
same,"MPC90, minimum parasiticidal concentration that achieves 90% of maximum effect, median (95% CI)",[1],23.5 (19.9 – 27.4) ng/ml and 23.5 ng/ml
same,minimum effective single dose predicted to clear 10^9 parasites/ml,"simulation in patients with malaria, 500 patients per dose, up to day 28",95 mg
